Measured values reported in patent US11214803B2, “Modulators of YAP1 expression” (Ionis Pharmaceuticals, Inc., priority 2019, dated 2022).
Strand notation (5' to 3'): a small letter for the sugar, then the base; units joined by * are phosphorothioate-linked, units joined directly phosphodiester-linked; [ ] holds rarer units or linkages, { } end groups; capitals alone tell only the bases. e = 2'-O-(2-methoxyethyl) (MOE); k = constrained ethyl (cEt); [5mC] = 5-methylcytosine; d = 2'-deoxy (DNA); m = 2'-O-methyl

Tested on: Yap1 mRNA
Assay: Dose-dependent inhibition of human Yap1 in SNU-449 cells (Example 9, RTS36584)
Format: cell-based
Conditions: free uptake; for % UTC (Yap1 mRNA): approximately 48 hours; for IC50: linear regression on a log/linear plot
Experimental: Modified oligonucleotides described in the studies above were tested at various doses in SNU-449 cells. Cultured SNU-449 cells at a density of 10,000 cells per well were treated using free uptake with modified oligonucleotides diluted to concentrations described in the tables below. After approximately 48 hours, Yap1 mRNA levels were measured as previously described using the Human Yap1 primer-probe set RTS36584. Yap1 mRNA levels were normalized to total RNA content, as measured by RIBOGREEN®. Results are presented in the tables below as percent control of the amount of Yap1 mRNA relative to untreated control cells (% UTC). IC50s were calculated using a linear regression on a log/linear plot of the data in excel.

| Substance | % UTC (Yap1 mRNA) (31.3 nM) | % UTC (Yap1 mRNA) (125.0 nM) | % UTC (Yap1 mRNA) (500.0 nM) | % UTC (Yap1 mRNA) (2000.00 nM) | IC50 |
| --- | --- | --- | --- | --- | --- |
| 1198805 (kA*kT*dT*dG*dT*d[5mC]*dT*d[5mC]*dA*dT*dG*k[5mC]*e[5mC]*kT*eT*kA; antisense) [compound 1198805] | 61 % UTC | 42 % UTC | 20 % UTC | 7 % UTC | 100 nM |
| 1200789 (G_{ks}G_{ks}A_{ks}A_{ds}A_{ds}U_{ys}T_{ds}G_{ds}T_{ds}^{m}C_{ds}T_{ds}^{m}C_{ds}A_{ds}T_{ks}G_{ks}^{m}C_{k}; as printed in the source, key not given here) [compound 1200789] | 60 % UTC | 32 % UTC | 15 % UTC | 5 % UTC | 50 nM |
| 1197214 (kA*kG*kT*dG*dT*dA*dT*dG*dT*d[5mC]*dA*dG*dA*kA*kG*kA; antisense) [compound 1197214] | 88 % UTC | 31 % UTC | 7 % UTC | 1 % UTC | 100 nM |
| 1197271 (kT*kT*kT*dA*mA*dA*dG*dT*dG*dT*dA*dT*dG*kT*k[5mC]*kA; antisense) [compound 1197271] | 70 % UTC | 47 % UTC | 19 % UTC | 8 % UTC | 100 nM |
| 1198382 (kT*dT*dA*dG*dA*dG*dT*dA*dT*dG*dT*kG*eG*k[5mC]*eA*kA; antisense) [compound 1198382] | 77 % UTC | 56 % UTC | 36 % UTC | 18 % UTC | 200 nM |
| 1200788 (kG*kA*kA*dA*dT*mU*dG*dT*d[5mC]*dT*d[5mC]*dA*dT*kG*k[5mC]*k[5mC]) [compound 1200788] | 61 % UTC | 38 % UTC | 19 % UTC | 9 % UTC | 100 nM |
| 1197215 (kA*kA*kG*dT*dG*dT*dA*dT*dG*dT*d[5mC]*dA*dG*kA*kA*kG) [compound 1197215] | 56 % UTC | 31 % UTC | 7 % UTC | 2 % UTC | 40 nM |
| 1198499 (kT*kT*dT*dA*dG*dG*dA*dT*dG*d[5mC]*dA*eT*kG*eG*kT*eT) [compound 1198499] | 89 % UTC | 42 % UTC | 30 % UTC | 12 % UTC | 200 nM |
| 1198525 (kA*kG*dT*dG*dT*dA*dT*dG*dT*d[5mC]*dA*eG*kA*eA*kG*eA) [compound 1198525] | 62 % UTC | 26 % UTC | 8 % UTC | 1 % UTC | 40 nM |
| 1198356 (kT*kA*kA*dA*dG*dT*dG*dT*dA*dT*dG*dT*k[5mC]*eA*kG*eA; antisense) [compound 1198356] | 85 % UTC | 30 % UTC | 7 % UTC | 1 % UTC | 100 nM |
| 1198613 (kA*kA*kA*dG*dT*dG*dT*dA*dT*dG*dT*d[5mC]*kA*kG*kA*eA; antisense) [compound 1198613] | 80 % UTC | 25 % UTC | 7 % UTC | 2 % UTC | 100 nM |
| 1200806 (kT*kG*kA*dG*dG*mU*dA*dT*dA*dA*d[5mC]*dT*dG*kG*kG*k[5mC]; antisense) [compound 1200806] | 91 % UTC | 54 % UTC | 34 % UTC | 18 % UTC | 200 nM |
| 1198818 (kT*kA*dT*dT*dA*dG*dA*dG*dT*dA*dT*kG*eT*kG*eG*k[5mC]) [compound 1198818] | 68 % UTC | 33 % UTC | 15 % UTC | 5 % UTC | 100 nM |
| 1200860 (kT*kA*kA*dA*dG*mU*dG*dT*dA*dT*dG*dT*d[5mC]*kA*kG*kA; antisense) [compound 1200860] | 59 % UTC | 35 % UTC | 15 % UTC | 5 % UTC | 50 nM |
| 1095593 (kT*kG*dA*dG*dG*dT*dA*dT*dA*dA*d[5mC]*eT*eG*eG*kG*k[5mC]; antisense) [compound 1095593] | 73 % UTC | 44 % UTC | 27 % UTC | 10 % UTC | 100 nM |
| 1198212 (kT*kA*dT*dT*dA*dG*dA*dG*dT*dA*dT*eG*eT*eG*kG*k[5mC]) [compound 1198212] | 74 % UTC | 35 % UTC | 10 % UTC | 2 % UTC | 100 nM |

| Substance | % UTC (Yap1 mRNA) (31.3 nM) | % UTC (Yap1 mRNA) (125.0 nM) | % UTC (Yap1 mRNA) (500.0 nM) | % UTC (Yap1 mRNA) (2000.00 nM) | IC50 |
| --- | --- | --- | --- | --- | --- |
| 1198552 (kA*kG*kA*dG*dT*dA*dT*dG*dT*dG*dG*d[5mC]*kA*kA*kT*eA; antisense) [compound 1198552] | 72 % UTC | 46 % UTC | 23 % UTC | 9 % UTC | 100 nM |
| 1198746 (kG*e[5mC]*kA*d[5mC]*dT*dT*dT*dT*dA*d[5mC]*dA*dT*eT*eA*kG*kG) [compound 1198746] | 49 % UTC | 24 % UTC | 9 % UTC | 3 % UTC | < 30 nM |
| 1200858 (kA*kA*kG*dT*dG*mU*dA*dT*dG*dT*d[5mC]*dA*dG*kA*kA*kG; antisense) [compound 1200858] | 71 % UTC | 39 % UTC | 14 % UTC | 4 % UTC | 100 nM |
| 1198895 (kG*kG*dA*dA*dA*dT*dT*dG*dT*d[5mC]*dT*k[5mC]*dA*kT*dG*k[5mC]; antisense) [compound 1198895] | 62 % UTC | 37 % UTC | 16 % UTC | 9 % UTC | 100 nM |
| 1198397 (k[5mC]*dA*d[5mC]*dT*dT*dT*dT*dA*d[5mC]*dA*dT*kT*eA*kG*eG*kA; antisense) [compound 1198397] | 70 % UTC | 53 % UTC | 28 % UTC | 14 % UTC | 100 nM |
| 1009326 (kT*kA*kT*dT*dA*dG*dA*dG*dT*dA*dT*dG*dT*kG*kG*k[5mC]; antisense) [compound 1009326] | 59 % UTC | 35 % UTC | 14 % UTC | 4 % UTC | 50 nM |
| 1197235 (kA*kT*kT*dA*mG*dA*dG*dT*dA*dT*dG*dT*dG*kG*k[5mC]*kA; antisense) [compound 1197235] | 64 % UTC | 36 % UTC | 16 % UTC | 5 % UTC | 100 nM |
| 1197176 (kT*kG*kT*d[5mC]*dT*d[5mC]*dA*dT*dG*d[5mC]*d[5mC]*dT*dT*kA*kT*kA; antisense) [compound 1197176] | 66 % UTC | 37 % UTC | 19 % UTC | 6 % UTC | 100 nM |
| 1197312 (kT*kG*kT*dA*mU*dG*dT*d[5mC]*dA*dG*dA*dA*dG*kA*kG*kT; antisense) [compound 1197312] | 101 % UTC | 58 % UTC | 34 % UTC | 11 % UTC | 300 nM |
| 1198295 (kT*kA*kG*dA*dG*dT*dA*dT*dG*dT*dG*dG*k[5mC]*eA*kA*eT; antisense) [compound 1198295] | 82 % UTC | 47 % UTC | 19 % UTC | 8 % UTC | 100 nM |
| 1198961 (kA*kA*dA*dG*dT*dG*dT*dA*dT*dG*dT*k[5mC]*dA*kG*dA*kA; antisense) [compound 1198961] | 77 % UTC | 35 % UTC | 11 % UTC | 3 % UTC | 100 nM |
| 1198484 (kG*k[5mC]*dA*d[5mC]*dT*dT*dT*dT*dA*d[5mC]*dA*eT*kT*eA*kG*eG) [compound 1198484] | 80 % UTC | 45 % UTC | 24 % UTC | 12 % UTC | 100 nM |
| 1009325 (kA*kG*kA*dG*dT*dA*dT*dG*dT*dG*dG*d[5mC]*dA*kA*kT*kA; antisense) [compound 1009325] | 59 % UTC | 36 % UTC | 16 % UTC | 4 % UTC | 100 nM |
| 1198354 (kA*kA*kG*dT*dG*dT*dA*dT*dG*dT*d[5mC]*dA*kG*eA*kA*eG) [compound 1198354] | 66 % UTC | 24 % UTC | 5 % UTC | 1 % UTC | 50 nM |
| 1198267 (kA*kG*dT*dG*dT*dA*dT*dG*dT*d[5mC]*dA*eG*eA*eA*kG*kA; antisense) [compound 1198267] | 78 % UTC | 44 % UTC | 15 % UTC | 3 % UTC | 100 nM |
